From ChEMBL document CHEMBL3091409, “Potent P2Y1 urea antagonists bearing various cyclic amine scaffolds” (Bioorg Med Chem Lett, 2013)
Values after ≈ are worked out from the molar mass of the structure shown.

How the values were obtained:
P2Y purinoceptor 1 = P2Y purinoceptor 1 (Homo sapiens, UniProt P47900); assay: Displacement of [beta-33P]-2MeS-ADP from human P2Y1 receptor transfected in HEK293 cells after 1 hr by scintillation counting method; type: cell-based
Platelet = assay: Inhibition of ADP-induced platelet aggregation in human platelet rich plasma; type: functional
[1] = Aqueous solubility of the compound in crystalline form in […] phosphate buffer at pH 6.5; type: physicochemical
[2] = Metabolic stability in rat liver microsomes assessed as compound remaining after 10 mins; type: ADME; conditions: read-out: Stability
[3] = molecular target: Voltage-gated inwardly rectifying potassium channel KCNH2 (Homo sapiens, UniProt Q12809); assay: Inhibition of human ERG flux
Sequence of Voltage-gated inwardly rectifying potassium channel KCNH2 (Q12809 whole entry): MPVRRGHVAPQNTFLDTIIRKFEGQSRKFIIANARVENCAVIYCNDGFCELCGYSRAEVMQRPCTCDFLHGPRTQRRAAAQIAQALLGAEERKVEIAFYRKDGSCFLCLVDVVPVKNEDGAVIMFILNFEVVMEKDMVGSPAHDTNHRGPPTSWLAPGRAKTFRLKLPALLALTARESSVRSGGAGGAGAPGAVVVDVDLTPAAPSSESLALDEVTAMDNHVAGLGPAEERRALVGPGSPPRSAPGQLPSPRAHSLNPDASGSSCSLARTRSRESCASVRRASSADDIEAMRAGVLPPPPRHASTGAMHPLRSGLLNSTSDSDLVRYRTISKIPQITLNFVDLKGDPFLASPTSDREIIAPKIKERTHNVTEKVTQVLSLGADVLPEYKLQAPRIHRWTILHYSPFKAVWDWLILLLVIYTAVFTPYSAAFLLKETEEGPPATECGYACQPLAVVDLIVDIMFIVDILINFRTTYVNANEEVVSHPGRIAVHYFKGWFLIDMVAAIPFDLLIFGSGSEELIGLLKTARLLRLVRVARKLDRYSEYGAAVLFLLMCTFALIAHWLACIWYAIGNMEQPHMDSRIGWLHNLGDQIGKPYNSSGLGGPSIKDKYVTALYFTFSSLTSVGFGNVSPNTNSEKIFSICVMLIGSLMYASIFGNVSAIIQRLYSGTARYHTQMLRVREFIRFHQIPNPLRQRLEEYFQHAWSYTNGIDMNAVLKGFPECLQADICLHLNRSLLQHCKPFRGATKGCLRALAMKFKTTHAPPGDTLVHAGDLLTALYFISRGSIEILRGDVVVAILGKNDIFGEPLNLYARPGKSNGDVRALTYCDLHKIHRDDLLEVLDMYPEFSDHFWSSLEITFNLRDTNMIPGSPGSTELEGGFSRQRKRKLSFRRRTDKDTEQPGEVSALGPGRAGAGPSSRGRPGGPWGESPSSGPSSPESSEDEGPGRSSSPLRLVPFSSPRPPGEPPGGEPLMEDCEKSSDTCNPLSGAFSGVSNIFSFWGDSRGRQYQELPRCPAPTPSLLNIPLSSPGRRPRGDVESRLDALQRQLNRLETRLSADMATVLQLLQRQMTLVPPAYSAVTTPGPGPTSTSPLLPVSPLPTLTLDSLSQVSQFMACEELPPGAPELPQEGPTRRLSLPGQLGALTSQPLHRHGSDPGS

[4] = Permeability from apical to basolateral side of human Caco2 cells; type: ADME, cell-based; conditions: Caco-2, read-out: permeability
[5] = Aqueous solubility of the compound in amorphous form in […] phosphate buffer at pH 6.5; type: physicochemical
[6] = Permeability of the compound by PAMPA; type: ADME; conditions: read-out: permeability
[7] = Plasma protein binding in human plasma; type: ADME, cell-free; conditions: read-out: PPB (converted)
[8] = Aqueous solubility of the compound in partially crystalline form in […] phosphate buffer at pH 6.5; type: physicochemical
[9] = Half life in rat at 2 mg/kg, iv and 5 mg/kg, po; type: ADME, organism-based; conditions: in vivo
[10] = Clearance in rat at 2 mg/kg, iv and 5 mg/kg, po; type: ADME, organism-based; conditions: in vivo
[11] = molecular target: D(2) dopamine receptor (Homo sapiens) (UniProt P14416); assay: Inhibition of D2 receptor (unknown origin); conditions: concentration not given here
Sequence of D(2) dopamine receptor (Homo sapiens) (P14416 whole entry): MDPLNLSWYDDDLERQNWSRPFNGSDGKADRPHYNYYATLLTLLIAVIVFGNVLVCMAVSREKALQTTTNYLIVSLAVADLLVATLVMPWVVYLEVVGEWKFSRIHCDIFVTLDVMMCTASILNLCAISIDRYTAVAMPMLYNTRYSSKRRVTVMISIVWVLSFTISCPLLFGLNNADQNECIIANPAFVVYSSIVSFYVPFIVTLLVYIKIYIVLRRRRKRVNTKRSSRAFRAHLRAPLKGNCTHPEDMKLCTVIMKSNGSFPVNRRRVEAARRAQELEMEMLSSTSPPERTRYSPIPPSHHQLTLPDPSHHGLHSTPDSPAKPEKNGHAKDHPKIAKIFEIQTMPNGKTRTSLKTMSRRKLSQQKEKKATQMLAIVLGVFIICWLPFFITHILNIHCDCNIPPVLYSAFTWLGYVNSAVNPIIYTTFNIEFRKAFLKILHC

[12] = Oral bioavailability in rat at 5 mg/kg; type: ADME, organism-based; conditions: in vivo
[13] = molecular target: 5-hydroxytryptamine receptor 2A (Homo sapiens) (UniProt P28223); assay: Inhibition of 5-HT2A receptor (unknown origin); conditions: concentration not given here
Sequence of 5-hydroxytryptamine receptor 2A (Homo sapiens) (P28223 whole entry): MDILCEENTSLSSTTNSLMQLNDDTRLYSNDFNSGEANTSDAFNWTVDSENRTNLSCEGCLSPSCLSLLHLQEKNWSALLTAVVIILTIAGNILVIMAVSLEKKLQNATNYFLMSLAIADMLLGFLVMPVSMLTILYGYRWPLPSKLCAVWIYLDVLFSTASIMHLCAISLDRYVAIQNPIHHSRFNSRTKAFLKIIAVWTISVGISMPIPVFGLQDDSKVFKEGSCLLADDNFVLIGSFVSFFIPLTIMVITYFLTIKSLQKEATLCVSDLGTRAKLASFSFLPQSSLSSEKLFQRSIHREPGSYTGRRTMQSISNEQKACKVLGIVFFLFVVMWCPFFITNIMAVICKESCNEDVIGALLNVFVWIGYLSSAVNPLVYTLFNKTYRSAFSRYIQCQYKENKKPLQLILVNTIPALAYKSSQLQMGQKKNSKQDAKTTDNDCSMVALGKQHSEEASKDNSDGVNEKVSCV

[14] = Volume of distribution at steady state in rat at 2 mg/kg, iv and 5 mg/kg, po; type: ADME, organism-based; conditions: in vivo, read-out: Vdss
[15] = molecular target: Sodium-dependent noradrenaline transporter (Homo sapiens) (UniProt P23975); assay: Inhibition of NET (unknown origin); conditions: concentration not given here
Sequence of Sodium-dependent noradrenaline transporter (Homo sapiens) (P23975 whole entry): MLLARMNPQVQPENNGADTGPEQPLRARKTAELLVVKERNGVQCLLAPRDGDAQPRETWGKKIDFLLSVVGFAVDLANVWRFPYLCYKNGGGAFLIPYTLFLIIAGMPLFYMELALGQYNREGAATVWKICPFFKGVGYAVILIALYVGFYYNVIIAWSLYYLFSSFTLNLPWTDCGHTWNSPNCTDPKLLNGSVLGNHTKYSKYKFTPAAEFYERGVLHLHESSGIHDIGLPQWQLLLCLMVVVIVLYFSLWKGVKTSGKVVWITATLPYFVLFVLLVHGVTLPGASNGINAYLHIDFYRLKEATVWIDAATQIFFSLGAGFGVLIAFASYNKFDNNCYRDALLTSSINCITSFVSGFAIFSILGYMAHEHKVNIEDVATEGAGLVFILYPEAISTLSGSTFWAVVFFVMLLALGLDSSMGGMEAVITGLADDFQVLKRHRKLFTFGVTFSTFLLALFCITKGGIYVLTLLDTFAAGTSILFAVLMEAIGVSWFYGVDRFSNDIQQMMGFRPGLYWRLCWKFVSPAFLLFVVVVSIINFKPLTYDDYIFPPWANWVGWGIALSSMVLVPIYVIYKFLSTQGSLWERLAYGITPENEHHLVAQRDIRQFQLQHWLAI

Sequence of P2Y purinoceptor 1 (P47900 whole entry): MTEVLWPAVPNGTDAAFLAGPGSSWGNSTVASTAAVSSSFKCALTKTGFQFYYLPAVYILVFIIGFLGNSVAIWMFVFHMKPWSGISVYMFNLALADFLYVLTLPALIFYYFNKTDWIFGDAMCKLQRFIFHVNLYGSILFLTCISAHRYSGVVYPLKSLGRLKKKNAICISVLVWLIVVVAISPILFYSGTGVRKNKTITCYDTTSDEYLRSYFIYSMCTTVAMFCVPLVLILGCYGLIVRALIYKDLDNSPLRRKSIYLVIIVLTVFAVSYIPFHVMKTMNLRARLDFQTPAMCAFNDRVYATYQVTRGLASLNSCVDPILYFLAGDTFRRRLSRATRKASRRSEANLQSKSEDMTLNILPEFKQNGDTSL

Row | Compound | Ki (P2Y purinoceptor 1) | IC50 (Platelet) | other results
1 | CC(C)(C)CN1CCc2c(cccc2Oc2ncccc2NC(=O)Nc2ccc(OC(F)(F)F)cc2)C1 | 0.011 µM | 3.1 µM | solubility [1]: 3 µg/mL (≈ 5.83 µM); remaining at 10 min [2]: 27%
2 | CC(C)(C)CCN1CCc2c(cccc2Oc2ncccc2NC(=O)Nc2ccc(OC(F)(F)F)cc2)C1 | 0.19 µM | – | –
3 | O=C(Nc1ccc(OC(F)(F)F)cc1)Nc1cccnc1Oc1cccc2c1CCN(Cc1cccc(O)c1)C2 | 2.2 µM | – | –
4 | O=C(Nc1ccc(OC(F)(F)F)cc1)Nc1cccnc1Oc1cccc2c1CCN(Cc1ccccc1O)C2 | 0.26 µM | – | –
5 | O=C(Nc1ccc(OC(F)(F)F)cc1)Nc1cccnc1Oc1ccccc1C1CCN(Cc2ccccc2)CC1 | 0.098 µM | 12.7 µM | –
6 | O=C(Nc1ccc(OC(F)(F)F)cc1)Nc1cccnc1Oc1cccc2c1CCN(Cc1ccccc1)C2 | 0.055 µM | – | –
7 | CC(C)CN1CCC(c2ccccc2Oc2ncccc2NC(=O)Nc2ccc(OC(F)(F)F)cc2)CC1 | 0.15 µM | 7.6 µM | IC50 [3]: 6 µM
8 | CC(C)CN1CCc2c(cccc2Oc2ncccc2NC(=O)Nc2ccc(OC(F)(F)F)cc2)C1 | 0.06 µM | – | –
9 | CN1Cc2cccc(Oc3ncccc3NC(=O)Nc3ccc(OC(F)(F)F)cc3)c2C1 | 3.7 µM | – | –
10 | CCCN1CCc2c(cccc2Oc2ncccc2NC(=O)Nc2ccc(OC(F)(F)F)cc2)C1 | 0.62 µM | – | –
11 | O=C(Nc1ccc(OC(F)(F)F)cc1)Nc1cccnc1Oc1cccc2c1CCN(CCc1ccccc1)C2 | 0.29 µM | – | –

Further compounds by falling Ki (P2Y purinoceptor 1), results first:

Row | Ki (P2Y purinoceptor 1) | IC50 (Platelet) | Compound | other results
12 | 3.4 µM | – | O=C(Nc1ccc(OC(F)(F)F)cc1)Nc1cccnc1Oc1cccc2c1CCN(Cc1ccc(O)cc1)C2 | –
13 | 3 µM | – | O=C(Nc1ccc(OC(F)(F)F)cc1)Nc1cccnc1Oc1cccc2c1CCNC2 | –
14 | 1.7 µM | – | CCN1CCc2c(cccc2Oc2ncccc2NC(=O)Nc2ccc(OC(F)(F)F)cc2)C1 | –
15 | 1.2 µM | – | O=C(Nc1ccc(OC(F)(F)F)cc1)Nc1cccnc1Oc1cccc2c1CCN(Cc1cccnc1)C2 | –
16 | 1.1 µM | – | O=C(Nc1ccc(OC(F)(F)F)cc1)Nc1cccnc1Oc1cccc2c1CCN(Cc1ccccn1)C2 | –
17 | 1.04 µM | – | O=C(Nc1ccc(OC(F)(F)F)cc1)Nc1cccnc1Oc1cccc2c1CCN(Cc1ccncc1)C2 | –
18 | 0.56 µM | – | CC(C)N1CCc2c(cccc2Oc2ncccc2NC(=O)Nc2ccc(OC(F)(F)F)cc2)C1 | –
19 | 0.068 µM | > 10 µM | CC(C)CN1Cc2cccc(Oc3ncccc3NC(=O)Nc3ccc(OC(F)(F)F)cc3)c2C1 | –
20 | 0.057 µM | 1.2 µM | CN1Cc2cccc(Oc3ncccc3NC(=O)Nc3ccc(OC(F)(F)F)cc3)c2C1C(C)(C)C (stereo not given) | remaining at 10 min [2]: 6%; Papp A→B [4]: < 1.5 ×10⁻⁶ cm/s; solubility [5]: 270 µg/mL (≈ 539 µM); Papp [6]: 78.4 ×10⁻⁶ cm/s; fraction unbound [7]: 0.003; IC50 [3]: 7.2 µM
21 | 0.029 µM | > 10 µM | CC(C)(C)CN1Cc2cccc(Oc3ncccc3NC(=O)Nc3ccc(OC(F)(F)F)cc3)c2C1 | –
22 | 0.016 µM | 2.4 µM | CC(C)(C)CN1CCC(c2ccccc2Oc2ncccc2NC(=O)Nc2ccc(OC(F)(F)F)cc2)CC1 | solubility [8]: 105 µg/mL (≈ 194 µM); remaining at 10 min [2]: 96%; half-life [9]: 11 h; clearance [10]: 18 mL/min/kg; inhibition [11]: > 50%; Papp [6]: 28.6 ×10⁻⁶ cm/s; fraction unbound [7]: 0.001; bioavailability [12]: 89%; inhibition [13]: > 50%; IC50 [3]: 4.6 µM; Vd [14]: 14 L/kg; inhibition [15]: > 50%
